Experimental data as given in PubChem BioAssay AID330 (DTP/NCI, 2004).
“And” between values parts separate entries of the source, which are not always exact repeats. Equal values may be shown once. Inconclusive results and toxic doses are left out. The calls were made as follows: active = survival T/C of 150% or more; inactive = T/C below 125% in these data.

Tested on: P388 leukemia ip, CD2F1 mice, survival T/C
Assay: NCI In Vivo Anticancer Drug Screen. Data for tumor model P388 Leukemia (intraperitoneal) in CD2F1 (CDF1) mice
Details: endpoint: median survival time, higher = longer survival
Procedure, shortened: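 Mice carrying the transplanted tumor received test compound or vehicle. Survival was recorded in each group, and the value is the treated-group measurement divided by that of the vehicle-treated control group.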

[1] = dose: 60.0 mg/kg/injection, schedule: Q01DX005 (ip), vehicle: saline with Tween-80
[2] = dose: 120.0 mg/kg/injection, schedule: Q01DX005 (ip), vehicle: saline with Tween-80
[3] = dose: 240.0 mg/kg/injection, schedule: Q01DX005 (ip), vehicle: saline with Tween-80
[4] = dose: 50.0 mg/kg/injection, schedule: Q01DX005 (ip), vehicle: Klucel (hydroxypropylcellulose) (HPC)
[5] = dose: 50.0 mg/kg/injection, schedule: Q01DX009 (ip), vehicle: saline
[6] = dose: 100.0 mg/kg/injection, schedule: Q01DX009 (ip), vehicle: saline
[7] = dose: 200.0 mg/kg/injection, schedule: Q01DX009 (ip), vehicle: saline
[8] = dose: 100.0 mg/kg/injection, schedule: Q01DX005 (ip), vehicle: saline with Tween-80
[9] = dose: 200.0 mg/kg/injection, schedule: Q01DX005 (ip), vehicle: saline with Tween-80

Measured: T/C

COC(=O)N1C=CC2ON=C(S(=O)(=O)c3ccccc3)C2C1 (stereo not given)
inactive: [1] 108 % of control | [2] 95 % of control | [3] 98 % of control

COc1ccc2c(c1)C(c1cccc3ccccc13)OC2=O (stereo not given)
inactive: dose: 6.25 mg/kg/injection, schedule: Q01DX005 (ip), vehicle: Klucel (hydroxypropylcellulose) (HPC) 103 % of control | dose: 12.5 mg/kg/injection, schedule: Q01DX005 (ip), vehicle: Klucel (hydroxypropylcellulose) (HPC) 92 % of control | dose: 25.0 mg/kg/injection, schedule: Q01DX005 (ip), vehicle: Klucel (hydroxypropylcellulose) (HPC) 87 % of control | [4] 90 % of control

CC(=O)CC(=O)CCC(=O)O
inactive: dose: 25.0 mg/kg/injection, schedule: Q01DX009 (ip), vehicle: saline 100 % of control | [5] 105 % of control | [6] 110 % of control | [7] 117 % of control | dose: 400.0 mg/kg/injection, schedule: Q01DX009 (ip), vehicle: saline 94 % of control

COc1cc(/C=N/N2CC(=O)N(c3cccc(Cl)c3)CC2=O)cc(OC)c1
inactive: dose: 7.5 mg/kg/injection, schedule: Q01DX005 (ip), vehicle: saline with Tween-80 95 % of control | dose: 15.0 mg/kg/injection, schedule: Q01DX005 (ip), vehicle: saline with Tween-80 96 % of control | dose: 30.0 mg/kg/injection, schedule: Q01DX005 (ip), vehicle: saline with Tween-80 94 % of control

CCOC(=O)C(CCCOC1CCCCO1)(C(=O)CC)c1ccccc1 (stereo not given) (tested in a mixture with another compound)
inactive: dose: 50.0 mg/kg/injection, schedule: Q01DX009 (ip), vehicle: acetone 111 % of control | dose: 100.0 mg/kg/injection, schedule: Q01DX009 (ip), vehicle: acetone 103 % of control | dose: 200.0 mg/kg/injection, schedule: Q01DX009 (ip), vehicle: acetone 107 % of control

Cc1c(-c2ccccc2)n[nH]c1-c1[nH]nc(-c2ccccc2)c1C
inactive: dose: 60.0 mg/kg/injection, schedule: Q01DX005 (ip), vehicle: Klucel (hydroxypropylcellulose) (HPC) 93 % of control | dose: 120.0 mg/kg/injection, schedule: Q01DX005 (ip), vehicle: Klucel (hydroxypropylcellulose) (HPC) 94 % of control | dose: 240.0 mg/kg/injection, schedule: Q01DX005 (ip), vehicle: Klucel (hydroxypropylcellulose) (HPC) 93 % of control

O=c1oc(-c2ccc(Cl)cc2Cl)nc2cc(Cl)ccc12
inactive: [1] 104 % of control | [2] 112 % of control

Nc1nnc(-c2cc([N+](=O)[O-])cc([N+](=O)[O-])c2)o1
inactive: [1] 108 % of control | [2] 94 % of control | [3] 100 % of control

CC1(C)OC2(CC1C1(C)C=CC(=O)O1)CC1(O)C(CCC34CC13C(=O)OC4c1ccoc1)O2 (stereo not given)
inactive: [5] 97 % of control | [6] 90 % of control | [7] 90 % of control

Cc1ccc(S(=O)(=O)SSC(=S)Sc2ccccc2)cc1
inactive: dose: 50.0 mg/kg/injection, schedule: Q01DX009 (ip), vehicle: Klucel (hydroxypropylcellulose) (HPC) 116 % of control | dose: 100.0 mg/kg/injection, schedule: Q01DX009 (ip), vehicle: Klucel (hydroxypropylcellulose) (HPC) 107 % of control | dose: 200.0 mg/kg/injection, schedule: Q01DX009 (ip), vehicle: Klucel (hydroxypropylcellulose) (HPC) 109 % of control

C=C(Cl)CSC(=S)N1CCOCC1
inactive: dose: 50.0 mg/kg/injection, schedule: Q01DX005 (ip), vehicle: saline with Tween-80 101 % of control and 102 % of control and 96 % of control | [8] 105 % of control and 107 % of control and 109 % of control | [9] 101 % of control and 120 % of control and 97 % of control

CC(C)(Br)C(=O)/C=C/c1ccc(Cl)c(Cl)c1
inactive: [1] 111 % of control | [2] 118 % of control | [3] 108 % of control

CC(C)(C)C(=O)CC(=O)C(C)(C)C.CC(C)(C)C(=O)CC(=O)C(C)(C)C.[Cu]
inactive: dose: 4.75 mg/kg/injection, schedule: Q01DX009 (ip), vehicle: saline with Tween-80 104 % of control | dose: 9.5 mg/kg/injection, schedule: Q01DX009 (ip), vehicle: saline with Tween-80 95 % of control | dose: 19.0 mg/kg/injection, schedule: Q01DX009 (ip), vehicle: saline with Tween-80 95 % of control

COc1ccc(Cc2cc3c(cc2OCC(=O)Nc2nccs2)OCO3)cc1
inactive: [4] 88 % of control | dose: 100.0 mg/kg/injection, schedule: Q01DX005 (ip), vehicle: Klucel (hydroxypropylcellulose) (HPC) 97 % of control | dose: 200.0 mg/kg/injection, schedule: Q01DX005 (ip), vehicle: Klucel (hydroxypropylcellulose) (HPC) 97 % of control

Cn1c(=O)c2nc(-c3ccc(Cl)cc3)c(-c3ccc(Cl)cc3)nc2n(C)c1=O
inactive: dose: 50.0 mg/kg/injection, schedule: Q01DX001 (ip), vehicle: saline with Tween-80 102 % of control | dose: 100.0 mg/kg/injection, schedule: Q01DX001 (ip), vehicle: saline with Tween-80 102 % of control | dose: 200.0 mg/kg/injection, schedule: Q01DX001 (ip), vehicle: saline with Tween-80 110 % of control

Cc1cc(Cl)cc2c1NC(=O)C2(O)C/C(=N/NC(=O)CC#N)c1cccc([N+](=O)[O-])c1 (stereo not given)
inactive: [1] 93 % of control | [8] 103 % of control | [9] 101 % of control
